The values that follow come from patent publication US8163732B2, “Tricyclic heteroaryl compounds useful as inhibitors of Janus kinase” (Vertex Pharmaceuticals Incorporated, priority 2005, dated 2012).

Assay [1] deals with JAK-2 (Homo sapiens, UniProt O60674). The experiment in a line: JAK-2 inhibition assay. The format is biochemical.
Assay [2] has as its target T1, JAK-3 (Homo sapiens, UniProt P52333).
T1 sequence (P52333 1-1124): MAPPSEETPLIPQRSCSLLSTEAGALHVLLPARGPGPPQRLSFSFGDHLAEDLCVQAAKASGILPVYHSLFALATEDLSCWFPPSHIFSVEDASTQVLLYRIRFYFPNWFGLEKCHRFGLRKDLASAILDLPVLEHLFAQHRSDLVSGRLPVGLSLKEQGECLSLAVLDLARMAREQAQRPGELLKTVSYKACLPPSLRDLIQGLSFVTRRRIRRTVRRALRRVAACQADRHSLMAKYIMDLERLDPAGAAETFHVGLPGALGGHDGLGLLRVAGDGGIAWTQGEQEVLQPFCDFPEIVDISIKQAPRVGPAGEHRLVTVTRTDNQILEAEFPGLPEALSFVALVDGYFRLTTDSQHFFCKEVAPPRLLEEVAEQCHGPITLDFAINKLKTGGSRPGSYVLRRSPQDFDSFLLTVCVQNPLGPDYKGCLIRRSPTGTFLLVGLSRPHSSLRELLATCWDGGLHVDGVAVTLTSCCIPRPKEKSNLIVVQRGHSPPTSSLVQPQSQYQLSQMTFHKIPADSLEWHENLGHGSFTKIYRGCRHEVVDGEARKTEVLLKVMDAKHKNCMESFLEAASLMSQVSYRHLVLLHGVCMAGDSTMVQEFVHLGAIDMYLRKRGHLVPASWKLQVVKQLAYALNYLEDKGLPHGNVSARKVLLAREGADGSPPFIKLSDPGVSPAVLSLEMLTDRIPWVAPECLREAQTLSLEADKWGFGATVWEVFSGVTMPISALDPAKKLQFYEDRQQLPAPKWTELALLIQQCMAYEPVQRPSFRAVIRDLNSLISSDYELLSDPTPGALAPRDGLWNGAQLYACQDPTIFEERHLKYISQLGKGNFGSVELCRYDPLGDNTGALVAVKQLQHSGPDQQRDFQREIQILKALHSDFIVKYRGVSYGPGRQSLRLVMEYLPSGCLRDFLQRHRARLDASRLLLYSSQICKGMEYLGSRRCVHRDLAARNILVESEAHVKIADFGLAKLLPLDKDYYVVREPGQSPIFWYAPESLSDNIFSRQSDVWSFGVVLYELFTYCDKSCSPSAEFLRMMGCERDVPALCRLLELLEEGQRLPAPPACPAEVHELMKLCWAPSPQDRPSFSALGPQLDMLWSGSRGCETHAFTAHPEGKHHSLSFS
In words: JAK-3 inhibition assay. It is filed as biochemical. The method, then:
Compounds were screened for their ability to inhibit JAK using the assay shown below. Reactions were carried out in a kinase buffer containing 100 mM HEPES (pH 7.4), 1 mM DTT, 10 mM MgCl2, 25 mM NaCl, and 0.01% BSA.
Substrate concentrations in the assay were 5 μM ATP (200 μCi/μmole ATP) and 1 μM poly(Glu)4Tyr. Reactions were carried out at 25° C. and 1 nM JAK-3.
To each well of a 96 well polycarbonate plate was added 1.5 μL of a candidate JAK-3 inhibitor along with 50 μL of kinase buffer containing 2 μM poly(Glu)4Tyr and 10 μM ATP. This was then mixed and 50 μL of kinase buffer containing 2 nM JAK-3 enzyme was added to start the reaction. After 20 minutes at room temperature (25° C.), the reaction was stopped with 50 μL of 20% trichloroacetic acid (TCA) that also contained 0.4 mM ATP. The entire contents of each well were then transferred to a 96 well glass fiber filter plate using a TomTek Cell Harvester. After washing, 60 μL of scintillation fluid was added and ^33P incorporation detected on a Perkin Elmer TopCount. After removing the mean background values for all of the data points, the data were fit using Prism software to obtain a Ki value (app).

Sequence of JAK-2 (O60674 whole entry): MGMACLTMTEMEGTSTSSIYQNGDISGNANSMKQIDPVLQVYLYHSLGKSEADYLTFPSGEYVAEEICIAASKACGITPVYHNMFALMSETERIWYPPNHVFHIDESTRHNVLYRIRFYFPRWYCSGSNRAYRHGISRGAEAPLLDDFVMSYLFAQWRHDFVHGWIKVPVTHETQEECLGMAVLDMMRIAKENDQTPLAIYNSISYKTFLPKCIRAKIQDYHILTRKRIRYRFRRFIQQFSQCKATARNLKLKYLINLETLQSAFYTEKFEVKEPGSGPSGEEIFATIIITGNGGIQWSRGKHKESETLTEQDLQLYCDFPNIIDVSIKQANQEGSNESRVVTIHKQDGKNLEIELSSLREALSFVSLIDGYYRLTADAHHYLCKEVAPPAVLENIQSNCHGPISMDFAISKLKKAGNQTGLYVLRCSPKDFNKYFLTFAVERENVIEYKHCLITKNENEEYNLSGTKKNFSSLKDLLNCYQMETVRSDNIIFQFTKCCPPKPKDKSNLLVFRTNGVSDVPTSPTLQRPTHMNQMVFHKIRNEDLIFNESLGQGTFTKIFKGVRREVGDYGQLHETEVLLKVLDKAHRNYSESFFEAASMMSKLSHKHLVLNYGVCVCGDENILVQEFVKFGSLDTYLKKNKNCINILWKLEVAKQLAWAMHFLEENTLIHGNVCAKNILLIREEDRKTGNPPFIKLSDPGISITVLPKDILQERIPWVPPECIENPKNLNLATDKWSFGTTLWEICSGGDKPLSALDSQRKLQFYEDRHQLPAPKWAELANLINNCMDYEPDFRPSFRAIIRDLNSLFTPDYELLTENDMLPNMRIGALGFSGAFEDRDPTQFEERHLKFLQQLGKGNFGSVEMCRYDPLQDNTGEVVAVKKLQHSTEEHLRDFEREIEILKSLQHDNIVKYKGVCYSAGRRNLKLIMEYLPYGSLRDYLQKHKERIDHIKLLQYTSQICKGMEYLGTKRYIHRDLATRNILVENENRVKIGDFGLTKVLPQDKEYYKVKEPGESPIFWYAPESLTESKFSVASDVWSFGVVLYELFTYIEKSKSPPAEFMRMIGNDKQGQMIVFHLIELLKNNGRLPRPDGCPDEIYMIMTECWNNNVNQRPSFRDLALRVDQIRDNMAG

In the case of `Oc1ccc(C2Nc3ccccc3-c3ccnc4[nH]cc2c34)cc1O` (stereo not shown) [Compound 66], the Ki was under 250 nM in assay [1] and at most 250 nM in assay [2].

As for `Fc1cccc(F)c1C1Nc2ccccc2-c2ccnc3[nH]cc1c23` (stereo not shown) [Compound 18], the inhibition constant (Ki) in assay [1] was under 250 nM; in assay [2], 250 to 2500 nM.

In the case of `Brc1ccccc1C1Nc2ccccc2-c2ccnc3[nH]cc1c23` (stereo not shown) [Compound 21], the inhibition constant Ki in assay [1] and in assay [2] was 250 to 2500 nM throughout.

With `COC(=O)c1cc(C2Nc3ccccc3-c3ccnc4[nH]cc2c34)ccc1O` (stereo not shown) [Compound 111], the inhibition constant (Ki) in assay [1] and in assay [2] was over 2500 nM in each case.

Turning to `Oc1ccc(C2Nc3ccccc3-c3ccnc4[nH]cc2c34)cc1C(F)(F)F` (stereo not shown) [Compound 104], the Ki in assay [1] and in assay [2] was 250 to 2500 nM in each case.

Consider `O=[N+]([O-])c1cc(O)ccc1C1Nc2ccccc2-c2ccnc3[nH]cc1c23` (stereo not shown) [Compound 71], for which the inhibition constant Ki in assay [1] was under 250 nM; in assay [2] it was at most 250 nM.

In the case of `Fc1ccc(C2Nc3ccccc3-c3ccnc4[nH]cc2c34)c(F)c1` (stereo not shown) [Compound 26], the Ki in assay [1] was under 250 nM; in assay [2], 250 to 2500 nM.

Regarding `Oc1ccc(C2=Nc3ccccc3-c3ccnc4[nH]cc2c34)c(Cl)c1` [Compound 63], the Ki is under 250 nM in assay [1] and at most 250 nM in assay [2].

Take `Clc1cccc(C2Nc3ccccc3-c3ccnc4[nH]cc2c34)c1Cl` (stereo not shown) [Compound 41]: the Ki is 250 to 2500 nM in assay [1] and over 2500 nM in assay [2].

For `Oc1ccc(O)c(C2Nc3ccccc3-c3ccnc4[nH]cc2c34)c1` (stereo not shown) [Compound 72], the Ki was over 2500 nM in assay [1] and 250 to 2500 nM in assay [2].

As for `Oc1ccc(C2Nc3ccccc3-c3ncnc4[nH]cc2c34)c(Cl)c1` (stereo not shown) [Compound 55], the figures for the Ki in assay [1] and in assay [2] were under 250 nM and at most 250 nM, respectively.

As for `c1ccc2c(c1)NC(c1ccc3c(c1)OCO3)c1c[nH]c3nccc-2c13` (stereo not shown) [Compound 22], the results for the Ki in assay [1] and in assay [2] were under 250 nM and 250 to 2500 nM, respectively.

With `Nc1ccc(C2Nc3ccccc3-c3ccnc4[nH]cc2c34)cc1` (stereo not shown) [Compound 93], the Ki in assay [1] is under 250 nM; in assay [2] it was at most 250 nM.

On to `Oc1ccccc1C1Nc2ccccc2-c2ccnc3[nH]cc1c23` (stereo not shown) [Compound 20], for which the Ki in assay [1] and in assay [2] was 250 to 2500 nM each time.

Consider `CS(=O)(=O)c1ccc(C2Nc3ccccc3-c3ccnc4[nH]cc2c34)cc1` (stereo not shown) [Compound 121], for which the Ki in assay [1] and in assay [2] was over 2500 nM throughout.

Consider `O=C1Nc2ccccc2-c2ncnc3[nH]cc(c23)C1c1ccc(O)cc1` (stereo not shown) [Compound 158], for which the values for the Ki in assay [1] and in assay [2] were under 250 nM and at most 250 nM, respectively.

In the case of `Oc1ccc(C2Nc3ccccc3-c3ccnc4[nH]cc2c34)cc1I` (stereo not shown) [Compound 75], the inhibition constant (Ki) was under 250 nM in assay [1] and at most 250 nM in assay [2].

In the case of `c1ccc(COCC2Nc3ccccc3-c3ncnc4[nH]cc2c34)cc1` (stereo not shown) [Compound 2], the Ki in assay [1] and in assay [2] was over 2500 nM throughout.

For the compound `O=C1Nc2ccccc2-c2ccnc3[nH]cc(c23)C1c1ccc(O)c(F)c1` (stereo not shown) [Compound 150], the Ki was under 250 nM in assay [1] and at most 250 nM in assay [2].

As for `COc1ccc(C2Nc3ccccc3-c3ccnc4[nH]cc2c34)c(OC)c1` (stereo not shown) [Compound 142], the Ki in assay [1] and in assay [2] was over 2500 nM throughout.

On to `Fc1cc(F)cc(C2Nc3ccccc3-c3ccnc4[nH]cc2c34)c1` (stereo not shown) [Compound 28], for which the inhibition constant Ki in assay [1] and in assay [2] was 250 to 2500 nM each time.

Regarding `Fc1cccc(C2Nc3ncccc3-c3ccnc4[nH]cc2c34)c1` (stereo not shown) [Compound 48], the inhibition constant (Ki) in assay [1] and in assay [2] was 250 to 2500 nM each time.

On to `COc1cc(C2Nc3ccccc3-c3ncnc4[nH]cc2c34)cc(OC)c1O` (stereo not shown) [Compound 85], for which the Ki in assay [1] and in assay [2] was 250 to 2500 nM in each case.

Regarding `N#CCC1Nc2ccccc2-c2ccnc3[nH]cc1c23` (stereo not shown) [Compound 155], the inhibitory constant (Ki) is under 250 nM in assay [1] and at most 250 nM in assay [2].

`Fc1ncccc1C1Nc2ccccc2-c2ccnc3[nH]cc1c23` (stereo not shown) [Compound 36]: the inhibitory constant (Ki) in assay [1] and in assay [2] was 250 to 2500 nM throughout.

`Oc1c(F)cc(C2Nc3ccccc3-c3ncnc4[nH]cc2c34)cc1F` (stereo not shown) [Compound 115]: the results for the Ki in assay [1] and in assay [2] were under 250 nM and at most 250 nM, respectively.

Take `FC(F)(F)c1ccc(C2Nc3ccccc3-c3ccnc4[nH]cc2c34)cc1` (stereo not shown) [Compound 136]: the Ki in assay [1] and in assay [2] was over 2500 nM in each case.

Turning to `Oc1ncc(C2Nc3ccccc3-c3ccnc4[nH]cc2c34)c(O)n1` (stereo not shown) [Compound 80], the Ki in assay [1] and in assay [2] was over 2500 nM each time.

Turning to `Cc1cc(C2Nc3ccccc3-c3ccnc4[nH]cc2c34)ccc1F` (stereo not shown) [Compound 138], the inhibitory constant (Ki) in assay [1] and in assay [2] was over 2500 nM throughout.

As for `Fc1ccc(F)c(C2Nc3ccccc3-c3c(Cl)cnc4[nH]cc2c34)c1F` (stereo not shown) [Compound 54], the figures for the inhibition constant (Ki) in assay [1] and in assay [2] were under 250 nM and 250 to 2500 nM, respectively.

As to `Oc1c(Cl)cc(C2Nc3ccccc3-c3ccnc4[nH]cc2c34)cc1Cl` (stereo not shown) [Compound 67], the Ki in assay [1] was under 250 nM; in assay [2], at most 250 nM.

On to `Fc1cccc(C2Nc3ccccc3-c3ccnc4[nH]cc2c34)c1F` (stereo not shown) [Compound 25], for which the figures for the inhibition constant Ki in assay [1] and in assay [2] were under 250 nM and 250 to 2500 nM, respectively.

Turning to `COc1cc(C2Nc3ccccc3-c3ccnc4[nH]cc2c34)ccc1O` (stereo not shown) [Compound 73], the inhibition constant (Ki) was under 250 nM in assay [1] and at most 250 nM in assay [2].

In the case of `c1ccc2c(c1)NC(c1ccncc1)c1c[nH]c3nccc-2c13` (stereo not shown) [Compound 43], the figures for the inhibition constant Ki in assay [1] and in assay [2] were 250 to 2500 nM and over 2500 nM, respectively.

For `FC(F)(F)C1Nc2ccccc2-c2ncnc3[nH]cc1c23` (stereo not shown) [Compound 4], the Ki in assay [1] and in assay [2] was over 2500 nM each time.

On to `OCCCCC1=Nc2ccccc2-c2ccnc3[nH]cc1c23` [Compound 58], for which the Ki in assay [1] and in assay [2] was 250 to 2500 nM in each case.

As for `Clc1cccc(Cl)c1C1Nc2ccccc2-c2ccnc3[nH]cc1c23` (stereo not shown) [Compound 42], the Ki in assay [1] and in assay [2] was 250 to 2500 nM in each case.

As to `COc1ccc(C2Nc3ccccc3-c3ccnc4[nH]cc2c34)cc1F` (stereo not shown) [Compound 45], the Ki in assay [1] was under 250 nM; in assay [2] it was 250 to 2500 nM.

`COc1ccc(C2Nc3ccccc3-c3ccnc4[nH]cc2c34)cc1` (stereo not shown) [Compound 135]: the Ki in assay [1] is under 250 nM; in assay [2] it was at most 250 nM.

In the case of `Cn1cc2c3c(ccnc31)-c1cccnc1NC2c1ccc(O)c(Cl)c1` (stereo not shown) [Compound 95], the Ki in assay [1] was under 250 nM; in assay [2], at most 250 nM.

`O=C1NC(c2ccc(O)cc2F)c2c[nH]c3nccc(c23)-c2ccccc21` (stereo not shown) [Compound 127]: the values for the Ki in assay [1] and in assay [2] were under 250 nM and 250 to 2500 nM, respectively.

Regarding `Oc1cccc(C2Nc3ccccc3-c3ccnc4[nH]cc2c34)c1O` (stereo not shown) [Compound 69], the inhibitory constant (Ki) in assay [1] was under 250 nM; in assay [2] it was at most 250 nM.

On to `O=C1Nc2ccccc2-c2ncnc3[nH]cc(c23)C1c1ccc(O)c(F)c1` (stereo not shown) [Compound 160], for which the results for the Ki in assay [1] and in assay [2] were under 250 nM and at most 250 nM, respectively.

As to `CC(C)(C)c1cc(C2Nc3ccccc3-c3ccnc4[nH]cc2c34)cc(C(C)(C)C)c1O` (stereo not shown) [Compound 108], the inhibitory constant (Ki) in assay [1] and in assay [2] was over 2500 nM in each case.

As to `FC(F)(F)c1ccccc1C1Nc2ccccc2-c2ccnc3[nH]cc1c23` (stereo not shown) [Compound 19], the Ki in assay [1] and in assay [2] was 250 to 2500 nM in each case.

`Clc1cccc(C2Nc3ccccc3-c3ccnc4[nH]cc2c34)c1` (stereo not shown) [Compound 40]: the inhibitory constant (Ki) in assay [1] and in assay [2] was 250 to 2500 nM in each case.

Turning to `Cn1cc2c3c(ncnc31)-c1ccccc1NC2c1ccc(O)c(F)c1` (stereo not shown) [Compound 117], the inhibitory constant (Ki) is under 250 nM in assay [1] and at most 250 nM in assay [2].
